# Earlier results as cited in patent US20060018842A1, “Composition and method for delivery of phytochemicals” (priority 2004, published 2006).
# “Also recorded” adds a separate entry of the source. Where two headings read alike, the source gives them in different places.
# Tests used:
# [1] = system: microorganisms named in the source
# [2] = system: oral cancer cell line KB-1
# [3] = system: breast cancer cell line MCF7
# [4] = system: human breast cancer xenografts; settings: mice
# [5] = system: oral squamous carcinoma cells
# [6] = system: normal human epidermal keratinocytes
# transformed cells = settings: by activating apoptosis
# [7] = system: oral carcinoma cell line (KB)
# [8] = system: oral squamous cell carcinoma (OSCC) cells
# [9] = organisms against which activity was observed, General = general antimicrobial
molecule,measurement,setting,value
COc1ccc2cc3[n+](cc2c1OC)CCc1cc2c(cc1-3)OCO2 [Berberine],Activity,[1]; [9],"Plasmodium; also recorded: Trypansomea, general; also recorded: Bacteria, protozoa; also recorded: Bacteria, Giardia duodenals,; also recorded: trypanosomes; also recorded: Platmodia"
C/C(=C\CC[C@H](C)[C@@H]1CC[C@]2(C)C3=CC[C@H]4C(C)(C)C(=O)CC[C@]4(C)[C@H]3CC[C@@]12C)C(=O)O [Terebinthone],Activity,[1]; [9],General
Hexemal,Activity,[1]; [9],General
CC(C)=CCC/C(C)=C/C=C/C(C)=C/C=C/C(C)=C/C=C/C=C(C)/C=C/C=C(C)/C=C/C=C(\C)CCC=C(C)C [lycopene],Induction of connexin 43,[2]; key protein for gap junction formation,specifically induced
same,"KB-1 cells, % of control cell numbers",[2]; physiological lycopene concentrations,approximately 10%
same,IGF-1 stimulated proliferation,[3],blocked IGF-1 stimulated proliferation
Catechin,Activity,[1]; [9],General; also recorded: Shigella; also recorded: Vibrio; also recorded: S. mutans; also recorded: Viruses
COc1cc(CNC(=O)CCCC/C=C/C(C)C)ccc1O [Capesicin],Activity,[1],Bacteria
C=C1C=CC(=O)O1 [Protoanemonia],Activity,[1]; [9],General
CC(C)=CCc1cc([C@@H]2CC(=O)c3ccc(O)c(CC=C(C)C)c3O2)ccc1O [Glabrol],Activity,[1]; [9],"S. aureus, M. tuberculosis"
O=C(CCc1ccc(O)cc1)c1c(O)cc(O)cc1O [Phloretin],Activity,[1]; [9],General
"CC1CCC(C(C)C)C(O)C1 (stereo not drawn) [Menthol, reference compound]",Activity,[1]; [9],General
CC1(C)C=Cc2c(cc3occ(-c4ccc(O)cc4)c(=O)c3c2O)O1 [Alpinumisoflavone],Activity,[1]; [9],Schiatosome
Cc1ccc(C(C)C)cc1O [Carvacrol],Activity,[1]; [9],General
O=C1C=C(O)C(=O)c2ccccc21 [Lawsone],Activity,[1]; [9],M. tuberculosis
CC1=C(CO)C(=O)O[C@@H]([C@@H](C)[C@H]2CC[C@H]3[C@@H]4C[C@H]5O[C@]56[C@@H](O)C=CC(=O)[C@]6(C)[C@H]4CC[C@]23C)C1 [Withafarin A],Activity,[1]; [9],"Bacteria, fungi"
COc1cc(/C=C/C(=O)CC(=O)/C=C/c2ccc(O)c(OC)c2)ccc1O [curcumin],Growth and metastasis of xenografts,[4],reduce the growth and metastasis
Anthemic acid,Activity,[1]; [9],"M. tuberculosis, S. typhi-; also recorded: murium, S. aureus,; also recorded: holminths"
epigallocatechin-3-gallate [EGCG],Apoptosis,[5],induce apoptosis
same,Survival,[6],survive
same,Normal cell growth,normal cell,not affected
same,Growth inhibition,transformed cells,induce growth inhibition
CCCCCCCC(=O)CCc1ccc(O)c(OC)c1 [[6]-paradol],Protection from tumor inducing agent,mouse skin,protected mouse skin from a tumor inducing agent
same,Cytotoxicity,[7]; features of caspase-3-mediated apoptosis,dose-dependent cytotoxicity
same,"Viable KB cells, % of untreated control",[7]; incubated for 48 h,less than 50%
COc1cc(CCN)cc(OC)c1OC [Mascaline],Activity,[1]; [9],General
CC(C)=CCc1cc(O)c(O)c(CC=C(C)C)c1[C@H]1Oc2c(CC=C(C)C)c(O)cc(O)c2C(=O)[C@@H]1O [Petalostemumol],Activity,[1]; [9],"Bacteria, fungi"
O=C(O)c1ccc(O)cc1O [β-Resorcyclic acid],Activity,[1]; [9],Bacteria and viruses
O=C(O)c1cc(O)c(O)c(O)c1 [Gallic acid],Activity,[1]; [9],S. aureus
C=CCc1ccc(O)c(OC)c1 [Eugonol],Activity,[1]; [9],General
C=CCS[S+]([O-])CC=C (stereo not drawn) [Allicin],Activity,[1]; [9],"Bacteria, Candida; also recorded: General"
Caffaio acids,Activity,[1]; [9],"Viruses, holminths"
C=C1C(=O)[C@]23C[C@H]1C[C@@H](O)[C@H]2[C@@]1(CCCC(C)(C)[C@H]1C=O)COC3=O [Trichorabdal A],Activity,[1]; [9],Helicobacter pylori
O=C(/C=C/C=C/c1ccc2c(c1)OCO2)N1CCCCC1 [Piperdine],Activity,[1]; [9],"Fungi, Lactobacillus,; also recorded: Micrococcus, E. coli; also recorded: E. facecalis"
Asiatocoside,Activity,[1]; [9],M. leprae
CC(C)=CCC1=C(O)C(C(=O)CC(C)C)=C(O)C(CC=C(C)C)(CC=C(C)C)C1=O [Lupulone],Activity,[1]; [9],General
"C=C[C@H]1CN2CC[C@H]1C[C@H]2[C@H](O)c1ccnc2ccc(OC)cc12 [Quiniae, reference compound]",Activity,[1]; [9],Plasmodium spp.
Helanine,Activity,[1]; [9],General
"COC(=O)[C@H]1[C@H]2C[C@@H]3c4[nH]c5cc(OC)ccc5c4CCN3C[C@H]2C[C@@H](OC(=O)c2cc(OC)c(OC)c(OC)c2)[C@@H]1OC [Roserpine, reference compound]",Activity,[1]; [9],General
COc1ccc2c3c1O[C@H]1C(=O)C=C[C@H]4[C@@H](C2)N(C)CC[C@]314 [codeinone],Selectivity of cytotoxicity,[8]; oral tumor cells,selectively higher in oral tumor cells
same,Apoptosis,[8]; targets the mitochondria,caspase-3-dependent apoptosis
"O=C(/C=C/c1ccc(O)c(O)c1)O[C@@H]1C[C@](O)(C(=O)O)C[C@@H](O)[C@H]1O [CGA, chlorogenic acid]",Apoptosis,oral cancer,induced caspase-3-dependent apoptosis
CC(Cc1ccc(O)c(O)c1)C(C)Cc1ccc(O)c(O)c1 (stereo not drawn) [Nordihydrogual-aretic acid],Activity,[1]; [9],Skin bacteria
Pebatin,Activity,[1]; [9],Bacteria
C=CCSSC=CC[S+]([O-])CC=C (mixture of isomers) [ajoene],Activity,[1]; [9],General
COc1ccc2c(c1OC)C(=O)O[C@@H]2[C@H]1c2cc3c(cc2CCN1C)OCO3 [hydrastine],Activity,[1]; [9],"Bacteria, Giardia duodenals,; also recorded: trypanosomes; also recorded: Platmodia"
O=C(CO)[C@@H](O)[C@H](O)[C@H](O)CO [Fructose],Activity,[1]; [9],E. coli; also recorded: Bacteria
"COc1cc2c(c(OC)c1OC)-c1ccc(OC)c(=O)cc1[C@@H](NC(C)=O)CC2 [Colchicines, reference compound]",Activity,[1]; [9],General
